The term IC50 denotes the midpoint of a concentration-inhibition curve. What is called Kd is the constant that tells how readily two partners part at equilibrium.

Here are results for 9 molecules from publication PMC8403366, “Functional significance of gain-of-function H19 lncRNA in skeletal muscle differentiation and anti-obesity effects” (Genome Medicine, 2021).

One data set relates to iPSC-SkMC. Briefly: Immunoblot of DMD, phosphorylated DMD and Ub-DMD in iPSC-SkMC. It counts as cell-based, human. The settings on record: for DMD phosphorylation / DMD protein levels / Ub-DMD: BMD iPSC-SkMC. An excerpt: The human skin fibroblasts GM09503 (healthy donor), GM02298 (BMD patient), or GM04569 (BMD patient) were obtained from the Coriell Institute and reprogramed to iPSC by Baylor Human Stem Cell Core. Clinical information is summarized in Additional file 2: Table S2. iPSCs from patients with BMD were used to study the potential molecular mechanisms of DMD stability within pathological context. iPSCs were maintained in feeder-free conditions using the mTeSR™1 medium (Stemcell technologies) on hESC-Qualified Matrigel (Corning) coated plates at 37 °C with 5% CO2. H19 knockout iPSC cell lines were generated using the CRISPR-Cas9 genome editing system, as described previously. iPSCs transfected with sgRNAs were selected with puromycin (250 ng/ml) for 7 days. Emerging iPSC colonies were picked individually and further expanded in mTeSR™1 medium. The presence of targeted gene knockout was confirmed by further genotyping characterization and PCR product sequencing.
For myogenic differentiation, iPSCs were differentiated into skeletal muscle cells using Skeletal Muscle Differentiation Kit (Genea Biocells) according to the manufacturer’s protocol. Briefly, iPSCs were plated onto a collagen I coated plate and maintained for 6–10 days in Skeletal Muscle Induction Medium (Genea Biocells) until confluent. Dissociated myogenic precursors were then plated on a collagen I coated plate and cultured in Skeletal Myoblast Medium (Genea Biocells) for 6–8 days. When confluent, cells were maintained in Myotube Medium or Myotube Fusion Medium (Genea Biocells). Cryopreserved stocks of myoblasts Genea002 were obtained from Genea Biocells. Genea002 was initially maintained in Skeletal Myoblast Medium and changed to Myotube Medium or Myotube Fusion Medium when confluent.
Background: A western blot detects proteins with antibodies after separation by electrophoresis.

Data set [1] deals with interaction between H19 and DMD. Briefly: RIP assay in iPSC-SkMC. It counts as cell-based, human. The settings on record: for interaction between H19 and DMD: iPSC-SkMC from healthy donor 09503 or BMD patient 02298; for interaction between HuR and Actin: specificity control.
The test system of another data set is MRCKα. The settings on record: cited from earlier work. The text has this: (§1) SNCA plays important roles in Parkinson’s disease through mediating the aggregation of protofibrils. […] MRCKα is a se ...
A further data set relates to SNCA. The settings on record: cited from earlier work.
From the text: as §1

Data set [2] addresses T1, DMD C-terminus (ZnF domain) WT (human, UniProt P11532 3046-3685). Briefly: alpha assay competition. Conditions: EMSA and RNA-protein binding: 50 mM Tris-HCl pH 7.9, 10% glycerol, 100 mM KCl, 5 mM MgCl2, 10 mM beta-ME, 0.1% NP-40, 30 C, 30 min (EMSA) or 1 h (dot blot) …. Background: Mobility shift assays separate free from complexed probe on a gel.
The test system of another data set is C57BL/6 J mice. In words: RT-qPCR of H19 and Dmd in TA of treated mice. Format: in vivo, mouse. Conditions: male mice, n = 5. The procedure: Total RNA was isolated from the snap-frozen samples using the RNeasy Plus Mini Kit (Qiagen). cDNA was synthesized from 1 μg of RNA using the iScript™ cDNA Synthesis Kit (Bio-Rad). Quantitative real-time PCR was performed using SsoAdvanced™ Universal SYBR® Green Supermix (Bio-Rad).

In data set [3] the target is T1, DMD C-terminus (ZnF domain) WT. Briefly: alpha assay saturation. The settings on record: EMSA and RNA-protein binding: 50 mM Tris-HCl pH 7.9, 10% glycerol, 100 mM KCl, 5 mM MgCl2, 10 mM beta-ME, 0.1% NP-40, 30 C, 30 min (EMSA) or 1 h (dot blot) ….
Data set [4] shares this target. Briefly: alpha assay competition; EMSA and RNA-protein binding: 50 mM Tris-HCl pH 7.9, 10% glycerol, 100 mM KCl, 5 mM MgCl2, 10 mM beta-ME, 0.1% NP-40, 30 C, 30 min (EMSA) or 1 h (dot blot); alpha assay conditions not in the material. Conditions: protein: recombinant, tags: His, label: 32P (EMSA), single strand.

T1 sequence (P11532 3046-3685): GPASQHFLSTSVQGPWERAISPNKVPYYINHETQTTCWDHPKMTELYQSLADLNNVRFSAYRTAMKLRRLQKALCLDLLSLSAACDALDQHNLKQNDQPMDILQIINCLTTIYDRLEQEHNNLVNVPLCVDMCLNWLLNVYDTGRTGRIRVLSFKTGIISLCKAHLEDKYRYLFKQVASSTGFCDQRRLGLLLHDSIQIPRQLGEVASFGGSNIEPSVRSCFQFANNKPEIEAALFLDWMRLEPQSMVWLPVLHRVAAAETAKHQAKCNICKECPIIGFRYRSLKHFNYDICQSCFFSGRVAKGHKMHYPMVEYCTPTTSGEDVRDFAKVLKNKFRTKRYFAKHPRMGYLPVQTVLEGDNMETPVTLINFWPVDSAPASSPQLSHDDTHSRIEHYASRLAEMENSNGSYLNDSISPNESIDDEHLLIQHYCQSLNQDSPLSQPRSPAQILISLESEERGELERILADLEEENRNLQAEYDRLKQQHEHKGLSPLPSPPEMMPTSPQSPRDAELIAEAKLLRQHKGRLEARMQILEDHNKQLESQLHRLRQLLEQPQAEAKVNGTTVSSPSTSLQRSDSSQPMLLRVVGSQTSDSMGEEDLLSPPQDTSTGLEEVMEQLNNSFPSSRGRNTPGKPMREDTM

Consider `O=C(Nc1cn[nH]c1-c1ccccn1)c1nn(C2CCNCC2)cc1Cl` [BDP5290], for which, in the data set on iPSC-SkMC, the DMD phosphorylation result is “reduced”, the DMD protein levels result was “improved” and the Ub-DMD result is “reduced”. In data set [1], the “interaction between H19 and DMD” value was “significantly improved”; the “interaction between HuR and Actin” value is “minimal effects”. In addition, in the data set with MRCKα, the IC50 is 10 nM.
Turning to `N#Cc1c(C(F)(F)F)c([N+](=O)[O-])c(-c2cccc([N+](=O)[O-])c2)[nH]c1=O` [SC-D, SynuClean-D], in the data set with iPSC-SkMC, the DMD phosphorylation entry is given as “reduced”, the DMD protein levels result is “improved” and the Ub-DMD result is “reduced”. Further, the “phosphorylation of DMD” value with iPSC-SkMC (iPSC-SkMC with exogenous expression of SNCA) is “attenuated”. In addition, in data set [1], the “interaction between H19 and DMD” value is “significantly improved”; the “interaction between HuR and Actin” value is reported as “minimal effects”. Also, in the data set on SNCA, the “SNCA aggregation in muscle tissues” value is “reduces”.
The molecule H19-WT mimic had a Kd in data set [2] of 130 nM.
As to “N-terminal-ELTNEIPAELTNEIPA-Linker-5'-[2'-F-U][2'-F-G][2'-F-G][2'-F-C][2'-F-C][2'-F-A][2'-F-A][2'-F-U][2'-F-G][2'-F-C][2'-F-C][2'-F-C][2'-F-U][2'-F-G][2'-F-G][2'-F-C][2'-F-U][2'-F-C][2'-F-A][2'-F-C][2'-F-A][2'-F-A][2'-F-A][2'-F-U][2'-F-A][2'-F-C][2'-F-C][2'-F-A][2'-F-C][2'-F-U]-3' [AGR-Scr, agrin peptide conjugated to scramble oligonucleotides; control, reference compound]”, in the data set with C57BL/6 J mice, the “expression of H19 in TA” value was “minimal effects” and the “expression of the Dmd transcript in TA” value was “minimal effects”.
With “N-terminal-ELTNEIPAELTNEIPA-Linker-5'-[2’-F-C][2’-F-U][2’-F-C][2’-F-U][2’-F-U][2’-F-A][2’-F-C][2’-F-A][2’-F-A][2’-F-U][2’-F-C][2’-F-U][2’-F-G][2’-F-A][2’-F-G][2’-F-C][2’-F-U][2’-F-U][2’-F-U][2’-F-C][2’-F-C][2’-F-A][2’-F-C][2’-F-A][2’-F-G][2’-F-U][2’-F-U][2’-F-U][2’-F-C][2’-F-C]-3' [AGR-H19-Rlof, agrin peptide conjugated to H19 RNA loss-of-function mimic]”, in the data set on C57BL/6 J mice, the “expression of H19 in TA” value is “minimal effects” and the “expression of the Dmd transcript in TA” value is “minimal effects”.
human H19 sense transcript gave a Kd in data set [3] of 71.1 nM.
In data set [3], mouse H19 sense transcript showed a Kd of 78.6 nM.
On to CUUUGUUUCUGAGCUUUCCUGUCUUUCCUU (ssRNA) [hH19 1951-1980 WT], for which the equilibrium dissociation constant (Kd) in data set [4] (biotin or unlabeled (alpha assay)) amounted to 116 nM.
As for CUUUAUUUCUGAGCUUUCCUAUCUUUCCUU (ssRNA) [hH19 1951-1980 Rgof (G1955A/G1971A)], in data set [4], the Kd turned out to be 14.9 nM.
